Here are results for 24 compounds from ChEMBL document CHEMBL1131872, “3-Amidinophenylalanine-based inhibitors of urokinase” (Bioorg Med Chem Lett, 1999).

The target in assay [1] is T1, Serine protease 1 (Bos taurus, UniProt P00760).
T1 sequence (P00760 whole entry): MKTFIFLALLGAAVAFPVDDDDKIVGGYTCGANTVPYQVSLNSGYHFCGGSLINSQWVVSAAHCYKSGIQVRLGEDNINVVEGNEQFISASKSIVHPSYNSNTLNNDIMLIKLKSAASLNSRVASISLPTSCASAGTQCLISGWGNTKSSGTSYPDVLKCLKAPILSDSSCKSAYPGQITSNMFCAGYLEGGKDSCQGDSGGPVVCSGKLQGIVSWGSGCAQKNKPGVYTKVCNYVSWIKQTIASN
Description: Tested for inhibition of trypsin.

Assay [2] has as its target T2, Plasminogen (Homo sapiens, UniProt P00747). Description: Tested for inhibition of plasmin.
In assay [3] the target is T3, Urokinase-type plasminogen activator (Homo sapiens, UniProt P00749). The assay is described as follows: Tested for inhibition of plasminogen activator urokinase (microPa).
Assay [4] concerns the target T3, Urokinase-type plasminogen activator. The assay is described as follows: Compound was tested for inhibition of plasminogen activator urokinase (microPa).
Assay [5] can be described thus: Compound was tested for inhibition of sc-tissue plasminogen activator.
For assay [6], the target named is T3, Urokinase-type plasminogen activator. Description: Compound was tested for inhibition of plasminogen activator urokinase (microPa).
A further assay has as its target Plasma kallikrein (Homo sapiens, UniProt P03952). The assay is described as follows: Compound was tested for inhibition of plasma kallikrein.
Assay [7] deals with T2, Plasminogen. Description: Compound was tested for inhibition of plasmin.
A further assay has as its target Prothrombin (Homo sapiens, UniProt P00734). The assay is described as follows: Compound was tested for inhibition of thrombin. Set-up: species or system Bos taurus.
A short description of assay [8]: Compound was tested for inhibition of protein Ca.
A further assay concerns the target Coagulation factor X (Bos taurus, UniProt P00743). Description: Compound was tested for inhibition of Coagulation factor X.
For assay [9], the target named is T1, Serine protease 1. Description: Compound was tested for inhibition of trypsin.

Molecules are shown by their SMILES.

T2 sequence (P00747 97-580 limits assumed): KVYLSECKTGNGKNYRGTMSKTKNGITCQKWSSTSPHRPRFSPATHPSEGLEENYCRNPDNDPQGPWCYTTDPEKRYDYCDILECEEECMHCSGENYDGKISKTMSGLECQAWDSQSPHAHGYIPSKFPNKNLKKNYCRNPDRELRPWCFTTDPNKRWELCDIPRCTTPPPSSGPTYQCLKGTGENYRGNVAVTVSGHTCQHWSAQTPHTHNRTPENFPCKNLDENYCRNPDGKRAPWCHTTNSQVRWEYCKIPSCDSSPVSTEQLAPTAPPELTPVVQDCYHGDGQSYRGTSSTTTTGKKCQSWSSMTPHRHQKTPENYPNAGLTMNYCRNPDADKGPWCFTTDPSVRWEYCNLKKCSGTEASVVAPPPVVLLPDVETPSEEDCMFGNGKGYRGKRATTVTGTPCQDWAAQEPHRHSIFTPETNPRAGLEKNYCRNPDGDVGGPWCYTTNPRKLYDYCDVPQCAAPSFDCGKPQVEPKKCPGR
T2 sequence (P00747 581-810 limits assumed): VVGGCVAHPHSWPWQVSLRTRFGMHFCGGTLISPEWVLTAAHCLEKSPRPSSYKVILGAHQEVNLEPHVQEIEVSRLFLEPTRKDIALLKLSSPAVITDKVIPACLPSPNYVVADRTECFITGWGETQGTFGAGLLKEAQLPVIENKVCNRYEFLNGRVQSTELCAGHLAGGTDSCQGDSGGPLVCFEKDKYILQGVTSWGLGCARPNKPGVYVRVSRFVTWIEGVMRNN
Chain of Plasma kallikrein (P03952 20-390 limits assumed): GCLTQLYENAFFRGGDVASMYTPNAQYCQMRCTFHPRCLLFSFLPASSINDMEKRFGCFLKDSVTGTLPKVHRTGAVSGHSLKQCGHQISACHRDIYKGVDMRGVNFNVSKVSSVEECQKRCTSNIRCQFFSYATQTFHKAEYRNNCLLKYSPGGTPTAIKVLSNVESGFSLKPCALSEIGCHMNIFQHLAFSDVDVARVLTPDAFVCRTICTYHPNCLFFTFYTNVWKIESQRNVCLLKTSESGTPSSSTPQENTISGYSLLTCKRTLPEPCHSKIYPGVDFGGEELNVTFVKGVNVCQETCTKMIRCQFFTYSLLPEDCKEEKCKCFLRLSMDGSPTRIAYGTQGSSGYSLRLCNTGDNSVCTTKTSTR
Chain of Plasma kallikrein (P03952 391-638 limits assumed): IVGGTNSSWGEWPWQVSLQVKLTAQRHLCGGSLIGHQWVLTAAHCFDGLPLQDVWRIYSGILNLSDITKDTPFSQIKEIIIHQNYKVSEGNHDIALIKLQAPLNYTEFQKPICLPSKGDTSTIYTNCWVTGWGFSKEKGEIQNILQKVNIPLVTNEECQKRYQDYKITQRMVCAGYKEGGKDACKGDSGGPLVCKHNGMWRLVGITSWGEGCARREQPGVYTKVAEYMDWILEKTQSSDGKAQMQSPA
Chain of Coagulation factor X (P00743 41-180 limits assumed): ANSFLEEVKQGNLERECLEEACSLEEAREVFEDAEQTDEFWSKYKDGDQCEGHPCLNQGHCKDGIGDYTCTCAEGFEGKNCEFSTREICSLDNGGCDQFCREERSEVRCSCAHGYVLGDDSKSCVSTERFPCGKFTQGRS
Chain of Coagulation factor X (P00743 234-492 limits assumed): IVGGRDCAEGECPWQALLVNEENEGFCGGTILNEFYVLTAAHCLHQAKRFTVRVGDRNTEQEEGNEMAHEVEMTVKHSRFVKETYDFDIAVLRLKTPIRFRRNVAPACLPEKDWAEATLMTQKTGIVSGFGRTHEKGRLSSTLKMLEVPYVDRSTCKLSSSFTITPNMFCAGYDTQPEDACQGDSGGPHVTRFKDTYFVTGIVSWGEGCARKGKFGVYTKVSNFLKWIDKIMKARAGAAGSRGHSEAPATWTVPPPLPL

Regarding `COC(=O)C1CCCCN1C(=O)C(Cc1cccc(C(=N)N)c1)NS(=O)(=O)c1c(C(C)C)cc(C(C)C)cc1C(C)C` (stereo not drawn), the Ki at Serine protease 1 [1] was found to be 1.4 µM; on Plasminogen [2], 1 µM; in assay [3], 33 µM.

`CC(C)c1cc(C(C)C)c(S(=O)(=O)NC(Cc2cccc(C(=N)N)c2)C(=O)N2CCN(C)CC2)c(C(C)C)c1` (stereo not drawn): the inhibition constant Ki at Serine protease 1 [1] is 3 µM; at Plasminogen [2], 21 µM; in [3] it was 52 µM.

As for `CC(C)c1cc(C(C)C)c(S(=O)(=O)NC(Cc2cccc(C(=N)N)c2)C(=O)N2CCNCC2)c(C(C)C)c1` (stereo not drawn), the inhibition constant (Ki) was found to be 0.98 µM on Serine protease 1 [1], 7.1 µM at Plasminogen [2] and 12 µM in assay [3].

Take `CC1CCN(C(=O)C(Cc2cccc(C(=N)N)c2)NS(=O)(=O)c2c(C(C)C)cc(C(C)C)cc2C(C)C)CC1` (stereo not drawn): affinity on Plasminogen [2] was put at a Ki of 4 µM.

Take `CC(C)c1cc(C(C)C)c(S(=O)(=O)NC(Cc2cccc(C(=N)N)c2)C(=O)N2CCCCC2C(=O)O)c(C(C)C)c1` (stereo not drawn): the inhibition constant Ki at Serine protease 1 [1] worked out at 0.5 µM; at Plasminogen [2], 1.5 µM; in assay [3] it was 1.3 µM.

For the compound `CC(C)c1cc(C(C)C)c(S(=O)(=O)NC(Cc2cccc(C(=N)N)c2)C(=O)N2CCOCC2)c(C(C)C)c1` (stereo not drawn), the inhibition constant Ki on Serine protease 1 [1] came out at 0.49 µM; at Plasminogen [2] it was 4.5 µM; in [3], 5.4 µM.

For `N=C(N)c1cccc(CC(NS(=O)(=O)c2ccc3ccccc3c2)C(=O)N2CCCC2)c1` (stereo not drawn), the values for the Ki (in assay [4]; at Plasminogen [2]) were 73 µM and 12 µM, respectively.

For `CC(C)c1cc(C(C)C)c(S(=O)(=O)NC(Cc2cccc(C(=N)N)c2)C(=O)N2CCCC2)c(C(C)C)c1` (stereo not drawn), the Ki was 3.9 µM at Serine protease 1 [1], 9.6 µM on Plasminogen [2] and 19 µM in assay [3].

In the case of `CC(C)c1cc(C(C)C)c(S(=O)(=O)NC(Cc2cccc(C(=N)N)c2)C(=O)N2CCCCCC2)c(C(C)C)c1` (stereo not drawn), the values for the Ki (at Serine protease 1 [1]; on Plasminogen [2]; in [3]) were 0.95 µM, 2.8 µM and 4.4 µM, respectively.

As for `N=C(N)c1cccc(CC(NS(=O)(=O)c2ccc3ccccc3c2)C(=O)N2CCOCC2)c1` (stereo not drawn), the Ki is 7.7 µM at Plasminogen [2] and 58 µM in [3].

In the case of `N=C(N)c1cccc(CC(NS(=O)(=O)c2ccc3ccccc3c2)C(=O)N2CCCCCCC2)c1` (stereo not drawn), the Ki stood at 7.8 µM at Plasminogen [2] and 19 µM in [3].

In the case of `N=C(N)c1cccc(CC(NS(=O)(=O)c2ccc3ccccc3c2)C(=O)N2CCCCCC2)c1` (stereo not drawn), the values for the Ki (at Serine protease 1 [1]; at Plasminogen [2]; in assay [3]) were 0.74 µM, 6.6 µM and 28 µM, respectively.

As to `CCOC(=O)N1CCN(C(=O)[C@H](Cc2cccc(C(=N)N)c2)NS(=O)(=O)c2c(C(C)C)cc(C(C)C)cc2C(C)C)CC1`, the inhibition constant Ki in assay [5] worked out at 4.9 µM; in assay [6], 0.41 µM; on Plasma kallikrein, 7.2 µM; on Plasminogen [7] it was 0.39 µM; on Prothrombin, 0.49 µM; in assay [8], 2.3 µM. The figures for the inhibitory constant (Ki) on Coagulation factor X and at Serine protease 1 [9] were 1.7 µM and 0.037 µM, respectively.

`COC(=O)C1CCCN(C(=O)C(Cc2cccc(C(=N)N)c2)NS(=O)(=O)c2c(C(C)C)cc(C(C)C)cc2C(C)C)C1` (stereo not drawn): the figures for the Ki (at Serine protease 1 [1]; on Plasminogen [2]; in [3]) were 0.36 µM, 1 µM and 2.5 µM, respectively.

As for `CNC(=O)C1CCN(C(=O)C(Cc2cccc(C(=N)N)c2)NS(=O)(=O)c2c(C(C)C)cc(C(C)C)cc2C(C)C)CC1` (stereo not drawn), the values for the inhibitory constant (Ki) (on Serine protease 1 [1]; at Plasminogen [2]; in [3]) were 0.36 µM, 2.5 µM and 4.8 µM, respectively.

Consider `CCOC(=O)N1CCN(C(=O)C(Cc2cccc(C(=N)N)c2)NS(=O)(=O)c2c(C(C)C)cc(C(C)C)cc2C(C)C)CC1` (stereo not drawn), for which the Ki worked out at 0.12 µM at Serine protease 1 [1], 1.2 µM on Plasminogen [2] and 0.96 µM in assay [3].

With `CNC(=O)C1CCCN(C(=O)C(Cc2cccc(C(=N)N)c2)NS(=O)(=O)c2c(C(C)C)cc(C(C)C)cc2C(C)C)C1` (stereo not drawn), the Ki was 0.4 µM on Plasminogen [2] and 12 µM in assay [3].

`CC(C)c1cc(C(C)C)c(S(=O)(=O)NC(Cc2cccc(C(=N)N)c2)C(=O)N2CCN(S(C)(=O)=O)CC2)c(C(C)C)c1` (stereo not drawn): the Ki at Serine protease 1 [1] was determined as 0.62 µM; on Plasminogen [2], 8 µM; in [3], 19 µM.

Regarding `COC(=O)C1CCN(C(=O)C(Cc2cccc(C(=N)N)c2)NS(=O)(=O)c2c(C(C)C)cc(C(C)C)cc2C(C)C)CC1` (stereo not drawn), the results for the Ki (on Plasminogen [2]; in assay [3]) were 1.4 µM and 1.3 µM, respectively.

With `CC(C)c1cc(C(C)C)c(S(=O)(=O)NC(Cc2cccc(C(=N)N)c2)C(=O)N2CCCC(C(=O)O)C2)c(C(C)C)c1` (stereo not drawn), the inhibition constant (Ki) was found to be 8.2 µM on Plasminogen [2] and 17 µM in assay [3].

Take `CC(C)c1cc(C(C)C)c(S(=O)(=O)NC(Cc2cccc(C(=N)N)c2)C(=O)N2CCCCCCC2)c(C(C)C)c1` (stereo not drawn): the inhibition constant (Ki) on Serine protease 1 [1] was determined as 0.83 µM; on Plasminogen [2], 3.2 µM; in [3], 7.8 µM.

Regarding `CC(C)c1cc(C(C)C)c(S(=O)(=O)NC(Cc2cccc(C(=N)N)c2)C(=O)N2CCC(C(=O)O)CC2)c(C(C)C)c1` (stereo not drawn), the figures for the Ki (at Serine protease 1 [1]; at Plasminogen [2]; in [3]) were 6.4 µM, 12 µM and 52 µM, respectively.

Take `CC(C)c1cc(C(C)C)c(S(=O)(=O)NC(Cc2cccc(C(=N)N)c2)C(=O)N2CCCCC2)c(C(C)C)c1` (stereo not drawn): the Ki at Serine protease 1 [1] came to 1.3 µM; on Plasminogen [2], 2.6 µM; in assay [3] it was 5.1 µM.

Regarding `COC(=O)N1CCN(C(=O)C(Cc2cccc(C(=N)N)c2)NS(=O)(=O)c2c(C(C)C)cc(C(C)C)cc2C(C)C)CC1` (stereo not drawn), the results for the inhibitory constant (Ki) on Serine protease 1 [1] and at Plasminogen [2] were 0.11 µM and 1.8 µM, respectively.

As a reminder, the Ki is the equilibrium dissociation constant of an inhibitor or competing ligand from its target. A high value points to a looser hold on the target.
